Results: patent US12421253B2 (Mirati Therapeutics, Inc., priority 2020, dated 2025)

Tests used:
KRas^G12R = target: T1, KRas^G12R (Homo sapiens, UniProt P01116, G12R); assay: KRas binding assay (TR-FRET displacement of Cy5 labelled tracer)
T1 construct: […]; biotin (biotinylated); purchased Accelegan Inc

KRas^G12D = target: T2, KRas^G12D (Homo sapiens, UniProt P01116, G12D); assay: as above
T2 construct: […]; biotin (biotinylated); purchased Accelegan Inc

KRas^G12V = target: T3, KRas^G12V (Homo sapiens, UniProt P01116, G12V); assay: as above
T3 construct: […]; biotin (biotinylated); purchased Accelegan Inc
T3 sequence (P01116 1-169 isoform P01116-2 G12V): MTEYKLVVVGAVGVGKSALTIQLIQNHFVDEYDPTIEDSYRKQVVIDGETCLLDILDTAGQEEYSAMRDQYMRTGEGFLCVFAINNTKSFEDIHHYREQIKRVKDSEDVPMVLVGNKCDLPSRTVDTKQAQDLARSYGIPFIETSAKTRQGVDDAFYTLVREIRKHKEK

H460 cells, pERK = assay: Inhibition of KRas phosphorylation of ERK (Cisbio HTRF Advanced pERK assay); assay type: cell-based; conditions: Homo sapiens, NCI-H460, 3 hrs, read-out: Inhibition (HTRF IC50 nM) of KRas-mediated Phosphorylation of ERK, H460
Summary of the method: (§1)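 pERK measured by HTRF in lysates from cells treated 3 h with compound, 10 uM top, 3-fold steps, 10 doses, 0.8% DMSO final. Cells (6,000/well, RPMI 10% FBS) had been plated overnight at 37 °C; 0.2 uM trametinib defined minimum signal; antibody detection 2 h at room temperature.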

PSN1 cells, pERK = assay: as above; assay type: cell-based; conditions: Homo sapiens, PSN1, 3 h, read-out: Inhibition (HTRF IC50 nM) of KRas-mediated Phosphorylation of ERK, PSN1
Summary of the method: as §1

MKN1 cells, pERK = assay: as above; assay type: cell-based; conditions: Homo sapiens, MKN-1, 3 h, read-out: Inhibition (HTRF IC50 nM) of KRas-mediated Phosphorylation of ERK, MKN1
Summary of the method: as §1

ASPC1 cells, pERK = assay: as above; assay type: cell-based; conditions: Homo sapiens, ASPC1, 3 h, AsPC-1 cells, read-out: Inhibition (HTRF IC50 nM) of KRas-mediated Phosphorylation of ERK, AsPC-1
Summary of the method: as §1

H727 cells, pERK = assay: as above; assay type: cell-based; conditions: Homo sapiens, NCI-H727, 3 h, read-out: Inhibition (HTRF IC50 nM) of KRas-mediated Phosphorylation of ERK, H727
Summary of the method: as §1

HCT116 cells, pERK = assay: as above; assay type: cell-based; conditions: Homo sapiens, HCT-116, 3 hrs, read-out: Inhibition (HTRF IC50 nM) of KRas-mediated Phosphorylation of ERK, HCT116
Summary of the method: as §1

T2 sequence (P01116 1-169 isoform P01116-2 G12D): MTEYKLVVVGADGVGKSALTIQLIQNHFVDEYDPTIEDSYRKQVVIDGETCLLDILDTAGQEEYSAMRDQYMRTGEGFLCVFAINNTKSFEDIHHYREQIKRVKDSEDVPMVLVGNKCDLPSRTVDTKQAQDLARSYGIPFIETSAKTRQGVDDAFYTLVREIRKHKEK
T1 sequence (P01116 1-169 isoform P01116-2 G12R): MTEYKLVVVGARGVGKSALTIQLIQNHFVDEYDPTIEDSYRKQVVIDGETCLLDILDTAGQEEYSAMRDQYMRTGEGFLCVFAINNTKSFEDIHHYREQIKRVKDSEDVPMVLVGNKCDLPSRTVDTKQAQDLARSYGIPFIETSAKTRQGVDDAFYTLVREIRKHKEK

Row | IC50 (KRas^G12R) | IC50 (KRas^G12D) | IC50 (KRas^G12V) | IC50 (H460 cells, pERK) | IC50 (PSN1 cells, pERK) | IC50 (MKN1 cells, pERK) | IC50 (ASPC1 cells, pERK) | IC50 (H727 cells, pERK) | IC50 (HCT116 cells, pERK) | SMILES
1 | 4 nM | 3 nM | 3 nM | 1020 nM | 6120 nM | 97 nM | 448 nM | 1580 nM |  | CC1(O)COCCN(c2nc(OC[C@@]34CCCN3C[C@H](F)C4)nc3c2CCN(c2cc(O)cc4ccc(F)c(Br)c24)C3)C1 (stereo partly drawn) [Example 219, 4-(7-(8-bromo-7-fluoro-3-hydroxynaphthalen-1-yl)-2-(((2R,7aS)-2-fluorohexahydro-1H-pyrrolizin-7a-yl)methoxy)-5,6,7,8-tetrahydropyrido[3,4-d]pyrimidin-4-yl)-6-methyl-1,4-oxazepan-6-ol]
2 | ≤ 2 nM | ≤ 2 nM | ≤ 2 nM | 545 nM | ≥ 10000 nM | 61 nM | 111 nM | 268 nM | 1110 nM | Nc1cc2n(n1)CCCN(c1nc(OC[C@@]34CCCN3C[C@H](F)C4)nc3c1CCN(c1cc(O)cc4ccc(F)c(Br)c14)C3)C2 [Example 212, 4-(4-(2-amino-7,8-dihydro-4H-pyrazolo[1,5-a][1,4]diazepin-5(6H)-yl)-2-(((2R,7aS)-2-fluorohexahydro-1H-pyrrolizin-7a-yl)methoxy)-5,6-dihydropyrido[3,4-d]pyrimidin-7(8H)-yl)-5-bromo-6-fluoronaphthalen-2-ol]
3 | ≤ 2 nM | ≤ 2 nM | ≤ 2 nM | 325 nM | 607 nM | 19 nM | 320 nM | 234 nM |  | O=C1CC2(CCCN(c3nc(OC[C@@]45CCCN4C[C@H](F)C5)nc4c3CCN(c3cc(O)cc5ccc(F)c(Br)c35)C4)C2)N1 (stereo partly drawn) [Example 223, 6-(7-(8-bromo-7-fluoro-3-hydroxynaphthalen-1-yl)-2-(((2R,7aS)-2-fluorohexahydro-1H-pyrrolizin-7a-yl)methoxy)-5,6,7,8-tetrahydropyrido[3,4-d]pyrimidin-4-yl)-1,6-diazaspiro[3.5]nonan-2-one]
4 | ≤ 2 nM | 3 nM | ≤ 2 nM |  | 4420 nM | 26 nM | 1290 nM | 739 nM | 1210 nM | CCc1c(F)ccc2cc(O)cc(N3CCc4c(nc(OC[C@@]56CCCN5C[C@H](F)C6)nc4N4CCOCC(CO)C4)C3)c12 (stereo partly drawn) [Example 65, 5-ethyl-6-fluoro-4-(2-(((2R,7aS)-2-fluorohexahydro-1H-pyrrolizin-7a-yl)methoxy)-4-(6-(hydroxymethyl)-1,4-oxazepan-4-yl)-5,6-dihydropyrido[3,4-d]pyrimidin-7(8H)-yl)naphthalen-2-ol]
5 | ≤ 2 nM | ≤ 2 nM | ≤ 2 nM |  | 2630 nM | 83 nM | 595 nM | 778 nM | 891 nM | CCc1c(F)ccc2cc(O)cc(N3CCc4c(nc(OC[C@@]56CCCN5C[C@H](F)C6)nc4N4CCCC5(CNC5=O)C4)C3)c12 (stereo partly drawn) [Example 64, 6-(7-(8-ethyl-7-fluoro-3-hydroxynaphthalen-1-yl)-2-(((2R,7aS)-2-fluorohexahydro-1H-pyrrolizin-7a-yl)methoxy)-5,6,7,8-tetrahydropyrido[3,4-d]pyrimidin-4-yl)-2,6-diazaspiro[3.5]nonan-1-one]
6 | 6 nM | 4 nM | 8 nM | 1560 nM | ≥ 10000 nM | 462 nM | 383 nM | 600 nM |  | CCc1c(F)ccc2cc(O)cc(N3CCc4c(nc(OC[C@@]56CCCN5C[C@H](F)C6)nc4N4CCCc5ncccc5C4)C3)c12 [Example 180, 4-(4-(8,9-dihydro-5H-pyrido[3,2-c]azepin-6(7H)-yl)-2-(((2R,7aS)-2-fluorohexahydro-1H-pyrrolizin-7a-yl)methoxy)-5,6-dihydropyrido[3,4-d]pyrimidin-7(8H)-yl)-5-ethyl-6-fluoronaphthalen-2-ol]
7 | 3 nM | ≤ 2 nM | ≤ 2 nM | 421 nM | 2260 nM | 71 nM | 112 nM | 423 nM | 1170 nM | C[C@@]1(O)CCCN(c2nc(OC[C@@]34CCCN3C[C@H](F)C4)nc3c2CCN(c2cc(O)cc4ccc(F)c(Cl)c24)C3)C1 [Example 68, (R)-1-(7-(8-chloro-7-fluoro-3-hydroxynaphthalen-1-yl)-2-(((2R,7aS)-2-fluorohexahydro-1H-pyrrolizin-7a-yl)methoxy)-5,6,7,8-tetrahydropyrido[3,4-d]pyrimidin-4-yl)-3-methylpiperidin-3-ol]
8 | ≤ 2 nM | ≤ 2 nM | ≤ 2 nM | 352 nM | 2820 nM | 37 nM | 179 nM | 530 nM | 672 nM | C[C@@]1(O)CCCN(c2nc(OC[C@@]34CCCN3C[C@H](F)C4)nc3c2CCN(c2cc(O)cc4ccc(F)c(Br)c24)C3)C1 [Example 222, (R)-1-(7-(8-bromo-7-fluoro-3-hydroxynaphthalen-1-yl)-2-(((2R,7aS)-2-fluorotetrahydro-1H-pyrrolizin-7a(5H)-yl)methoxy)-5,6,7,8-tetrahydropyrido[3,4-d]pyrimidin-4-yl)-3-methylpiperidin-3-ol]
9 | ≤ 2 nM | ≤ 2 nM | ≤ 2 nM | 285 nM | 1690 nM | 12 nM | 136 nM | 313 nM | 499 nM | CCc1c(F)ccc2cc(O)cc(N3CCc4c(nc(OC[C@@]56CCCN5C[C@H](F)C6)nc4N4CCCC5(CNC(=O)C5)C4)C3)c12 (stereo partly drawn) [Example 197, 7-(7-(8-ethyl-7-fluoro-3-hydroxynaphthalen-1-yl)-2-(((2R,7aS)-2-fluorohexahydro-1H-pyrrolizin-7a-yl)methoxy)-5,6,7,8-tetrahydropyrido[3,4-d]pyrimidin-4-yl)-2,7-diazaspiro[4.5]decan-3-one]
10 | ≤ 2 nM | ≤ 2 nM | ≤ 2 nM |  | 6610 nM | 29 nM | 556 nM | 258 nM | 1120 nM | CCc1c(F)ccc2cc(O)cc(N3CCc4c(nc(OC[C@@]56CCCN5C[C@H](F)C6)nc4N4CCCC5(CC(O)C5)C4)C3)c12 (stereo partly drawn) [Example 60, 6-(7-(8-ethyl-7-fluoro-3-hydroxynaphthalen-1-yl)-2-(((2R,7aS)-2-fluorohexahydro-1H-pyrrolizin-7a-yl)methoxy)-5,6,7,8-tetrahydropyrido[3,4-d]pyrimidin-4-yl)-6-azaspiro[3.5]nonan-2-ol]
